In patent US20260027067A1, “TRIENTINE LIQUID DOSAGE FORMS” (BIOPHORE INDIA PHARMACEUTICALS PVT. LTD., priority 2022, published 2026):
Structures can show the parent of a compound that is named as a salt.

Columns and labels:
[1] = crystalline powder; cited from earlier work
[2] = Selection of sweeteners and flavoring agents (formulation trials); details: used as sweetener in trientine tetrahydrochloride oral solution

**Q.** Which hygroscopicity [1] does the source give for `NCCNCCNCCN` [Trientine dihydrochloride salt, Trientine dihydrochloride] here?
**A.** hygroscopic

**Q.** For `Cl.Cl.Cl.Cl.NCCNCCNCCN` [Trientine tetrahydrochloride salt, Trientine tetrahydrochloride], which hygroscopicity [1] is on record?
**A.** not hygroscopic

**Q.** With `O=C1NS(=O)(=O)c2ccccc21.[Na]` [saccharin sodium] as the compound, how does the “compatibility of the sweetener in the formulation” value [2] read?
**A.** incompatibility in the form of milky white curdling
